Source: ChEMBL document CHEMBL1201862, “PubChem BioAssay data set” (2004)
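Results reflect a 48-hour exposure of cells in 96-well plates to compound at five concentrations. Abbreviation: GI50, concentration required for 50% inhibition of growth.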 The source made the active and inactive calls. No stated cut-off is given here; in the data, active = GI50 up to about 1.1 µM and inactive = higher.

Tests used:
Assay in all cases: NCI anticancer screen, dose series, 48 h
Hs-578T = tested on: Hs-578T
RXF 393 = tested on: RXF 393
HOP-92 = tested on: HOP-92
NCI-H23 = tested on: NCI-H23
MDA-MB-435 = tested on: MDA-MB-435
SK-MEL-5 = tested on: SK-MEL-5
PC-3 = tested on: PC-3
SK-MEL-2 = tested on: SK-MEL-2
SW-620 = tested on: SW-620
SK-MEL-28 = tested on: SK-MEL-28
K562 = tested on: K562
UACC-62 = tested on: UACC-62
BT-549 = tested on: BT-549
EKVX = tested on: EKVX
RPMI-8226 = tested on: RPMI-8226
MDA-MB-231 = tested on: MDA-MB-231
KM12 = tested on: KM12
U-251 = tested on: U-251
NCI-H522 = tested on: NCI-H522
TK-10 = tested on: TK-10

Measured: GI50

CCOC(=O)c1cc2c3c(cc(OC)c2[nH]1)N(C(=O)OCC)CC3
inactive: Hs-578T > 100 µM | RXF 393 > 100 µM | HOP-92 > 100 µM | NCI-H23 > 100 µM | MDA-MB-435 > 100 µM | SK-MEL-5 > 100 µM | PC-3 > 100 µM | SK-MEL-2 > 100 µM | SW-620 > 100 µM | SK-MEL-28 > 100 µM | K562 > 100 µM | UACC-62 > 100 µM | BT-549 > 100 µM | EKVX 42.5 µM | RPMI-8226 > 100 µM | MDA-MB-231 > 100 µM | KM12 > 100 µM | U-251 > 100 µM

Nc1ccc2c3c1cccc3c(=O)n1c3ccc(Cc4ccc5c(c4)nc4c6ccc(N)c7cccc(c(=O)n54)c76)cc3nc21
inactive: RXF 393 > 100 µM | HOP-92 > 100 µM | NCI-H23 > 100 µM | MDA-MB-435 > 100 µM | SK-MEL-5 > 100 µM | PC-3 > 100 µM | SK-MEL-2 > 100 µM | SW-620 > 100 µM | SK-MEL-28 > 100 µM | K562 > 100 µM | UACC-62 > 100 µM | NCI-H522 > 100 µM | BT-549 > 100 µM | EKVX > 100 µM | RPMI-8226 > 100 µM | MDA-MB-231 > 100 µM | KM12 > 100 µM | U-251 > 100 µM

COC(=O)C1=C(C(=O)OC)C(C(=O)c2ccc(Br)cc2)N2N=C(c3ccc(Cl)cc3)C=CC12 (centres undefined)
inactive: Hs-578T > 100 µM | HOP-92 72.1 µM | TK-10 > 100 µM | NCI-H23 > 100 µM | MDA-MB-435 > 100 µM | SK-MEL-5 > 100 µM | PC-3 80.4 µM | SK-MEL-2 > 100 µM | SW-620 > 100 µM | SK-MEL-28 > 100 µM | K562 > 100 µM | UACC-62 25.2 µM | NCI-H522 26.2 µM | BT-549 34.8 µM | EKVX > 100 µM | RPMI-8226 > 100 µM | MDA-MB-231 > 100 µM | KM12 14.5 µM | U-251 > 100 µM

COc1cc(S(=O)(=O)Nc2ccc(-c3csc(N4C(=O)CSC4c4ccccc4)n3)cc2)ccc1Cl (centres undefined)
inactive: Hs-578T 55.6 µM | RXF 393 29.2 µM | HOP-92 20.6 µM | NCI-H23 > 100 µM | MDA-MB-435 43.1 µM | SK-MEL-5 92.9 µM | PC-3 41.3 µM | SK-MEL-2 37.2 µM | SW-620 42.4 µM | SK-MEL-28 22.9 µM | K562 39.7 µM | UACC-62 13.2 µM | NCI-H522 34.4 µM | BT-549 75.5 µM | EKVX 20.6 µM | RPMI-8226 24.4 µM | KM12 30.5 µM

O=c1c2cc(S(=O)(=O)O)ccc2nc(COc2ccc(Oc3ccc(Cl)cc3Cl)cc2)n1-c1ccc(Cl)cc1Oc1c(Cl)cccc1Cl
inactive: Hs-578T 26.1 µM | HOP-92 15.7 µM | TK-10 29.4 µM | NCI-H23 24.2 µM | MDA-MB-435 25.6 µM | SK-MEL-5 17 µM | PC-3 36.4 µM | SK-MEL-2 18.6 µM | SW-620 23.3 µM | K562 43.2 µM | UACC-62 20.1 µM | NCI-H522 20.7 µM | BT-549 21.9 µM | EKVX 15.6 µM | RPMI-8226 21.2 µM | KM12 35 µM | U-251 18.3 µM

COc1ccc2c(c1)CCC/C2=N\NS(=O)(=O)c1c(C)cc(C)cc1C
inactive: Hs-578T 30.6 µM | HOP-92 20.3 µM | TK-10 51.4 µM | NCI-H23 24.8 µM | MDA-MB-435 27.7 µM | SK-MEL-5 17.3 µM | PC-3 28.6 µM | SK-MEL-2 34.3 µM | SW-620 28.1 µM | SK-MEL-28 35.1 µM | K562 18.1 µM | UACC-62 18.7 µM | BT-549 28.9 µM | EKVX 23.2 µM | MDA-MB-231 30.8 µM | KM12 16 µM | U-251 31.6 µM

Cc1cccc2c1Oc1ccccc1C2NC(=O)c1ccc([N+](=O)[O-])cc1 (centres undefined)
inactive: Hs-578T 29.4 µM | RXF 393 23.7 µM | HOP-92 > 100 µM | TK-10 > 100 µM | NCI-H23 > 100 µM | SK-MEL-5 > 100 µM | PC-3 > 100 µM | SK-MEL-2 > 100 µM | SW-620 > 100 µM | SK-MEL-28 > 100 µM | K562 > 100 µM | UACC-62 > 100 µM | NCI-H522 > 100 µM | BT-549 56 µM | EKVX > 100 µM | RPMI-8226 > 100 µM | MDA-MB-231 66.1 µM | KM12 > 100 µM | U-251 57.8 µM

CC(N)(CC(O)(C(F)(F)Cl)C(F)(F)Cl)C(=O)O (centres undefined)
inactive: Hs-578T > 10 µM | HOP-92 > 10 µM | TK-10 > 10 µM | NCI-H23 > 10 µM | MDA-MB-435 > 10 µM | SK-MEL-5 > 10 µM | PC-3 > 10 µM | SW-620 > 10 µM | SK-MEL-28 > 10 µM | K562 > 10 µM | UACC-62 > 10 µM | NCI-H522 > 10 µM | BT-549 > 10 µM | EKVX > 10 µM | MDA-MB-231 > 10 µM | KM12 > 10 µM | U-251 > 10 µM

O=C1Nc2ccccc2C1Cc1ccc([N+](=O)[O-])cc1 (centres undefined)
inactive: Hs-578T 63.4 µM | RXF 393 > 100 µM | TK-10 > 100 µM | NCI-H23 > 100 µM | MDA-MB-435 > 100 µM | SK-MEL-5 57.5 µM | PC-3 74 µM | SK-MEL-2 > 100 µM | SW-620 > 100 µM | SK-MEL-28 > 100 µM | K562 > 100 µM | UACC-62 > 100 µM | NCI-H522 35.9 µM | BT-549 > 100 µM | EKVX > 100 µM | RPMI-8226 34.8 µM | MDA-MB-231 14 µM | KM12 36.2 µM | U-251 > 100 µM

c1cncc(-c2ncc3cccnc3n2)c1
inactive: Hs-578T > 100 µM | RXF 393 > 100 µM | HOP-92 > 100 µM | TK-10 > 100 µM | NCI-H23 > 100 µM | SK-MEL-5 > 100 µM | PC-3 > 100 µM | SK-MEL-2 > 100 µM | SW-620 > 100 µM | K562 > 100 µM | UACC-62 > 100 µM | NCI-H522 > 100 µM | BT-549 > 100 µM | EKVX > 100 µM | RPMI-8226 > 100 µM | MDA-MB-231 > 100 µM | KM12 > 100 µM | U-251 > 100 µM

Nc1ccc2c(c1)C(=O)N1CCC[C@H]1C(=O)N2
inactive: RXF 393 > 100 µM | HOP-92 > 100 µM | TK-10 > 100 µM | NCI-H23 > 100 µM | MDA-MB-435 > 100 µM | SK-MEL-5 > 100 µM | PC-3 > 100 µM | SK-MEL-2 > 100 µM | SW-620 > 100 µM | SK-MEL-28 > 100 µM | K562 > 100 µM | UACC-62 > 100 µM | NCI-H522 > 100 µM | BT-549 > 100 µM | EKVX > 100 µM | RPMI-8226 > 100 µM | MDA-MB-231 > 100 µM | KM12 > 100 µM | U-251 > 100 µM

NC1=Nc2cc(Cl)ccc2Sc2nc3ccccc3n21
inactive: Hs-578T > 72.3 µM | HOP-92 16.1 µM | TK-10 > 88.9 µM | NCI-H23 6.53 µM | MDA-MB-435 > 100 µM | SK-MEL-5 4.92 µM | PC-3 6.76 µM | SK-MEL-2 20 µM | SW-620 > 86.3 µM | SK-MEL-28 > 100 µM | K562 3.47 µM | UACC-62 4.66 µM | NCI-H522 3.92 µM | BT-549 > 100 µM | EKVX 20.3 µM | RPMI-8226 5.73 µM | MDA-MB-231 > 20.7 µM | KM12 > 100 µM | U-251 4.48 µM

Cc1cn([C@H]2CN(O)C[C@@H](CO)O2)c(=O)[nH]c1=O
inactive: Hs-578T > 100 µM | RXF 393 > 100 µM | TK-10 > 100 µM | MDA-MB-435 > 100 µM | SK-MEL-5 > 100 µM | PC-3 > 100 µM | SK-MEL-2 > 100 µM | SW-620 > 100 µM | SK-MEL-28 > 100 µM | K562 > 100 µM | UACC-62 > 100 µM | BT-549 > 100 µM | EKVX > 100 µM | RPMI-8226 > 100 µM | MDA-MB-231 > 100 µM | KM12 > 100 µM | U-251 > 100 µM

CC(C)(C)C1CCC2c3c([nH]c4ccccc34)C3C(=O)N(c4cc(Br)cc(Br)c4)C(=O)C3C2C1 (centres undefined)
inactive: Hs-578T 7 µM | HOP-92 2.63 µM | TK-10 19.9 µM | NCI-H23 15.9 µM | MDA-MB-435 19.7 µM | SK-MEL-5 24.2 µM | PC-3 9.95 µM | SK-MEL-2 26.7 µM | SW-620 51.2 µM | SK-MEL-28 13.2 µM | UACC-62 25.1 µM | NCI-H522 20.9 µM | BT-549 33.9 µM | EKVX 6.58 µM | RPMI-8226 36.4 µM | MDA-MB-231 27 µM | KM12 12.6 µM | U-251 13.4 µM

COC(=O)c1csc(-c2csc(CCNC(=O)OC(C)(C)C)n2)n1
inactive: Hs-578T > 100 µM | RXF 393 > 100 µM | HOP-92 > 100 µM | TK-10 > 100 µM | NCI-H23 > 100 µM | MDA-MB-435 > 100 µM | SK-MEL-5 90.6 µM | PC-3 56.1 µM | SW-620 > 100 µM | SK-MEL-28 > 100 µM | K562 > 100 µM | UACC-62 59.7 µM | BT-549 40.4 µM | EKVX > 100 µM | RPMI-8226 > 100 µM | KM12 > 100 µM | U-251 > 100 µM
